Key:
SHP2 = molecular target: T1, SHP2 (Homo sapiens, UniProt Q06124); assay: Cellular thermal shift assay (CETSA); type: binding; details: NCI‐H2122 cell lysate
T1 construct: endogenous in cells; host or cells: NCI-H2122
T1 sequence (Q06124 1-593): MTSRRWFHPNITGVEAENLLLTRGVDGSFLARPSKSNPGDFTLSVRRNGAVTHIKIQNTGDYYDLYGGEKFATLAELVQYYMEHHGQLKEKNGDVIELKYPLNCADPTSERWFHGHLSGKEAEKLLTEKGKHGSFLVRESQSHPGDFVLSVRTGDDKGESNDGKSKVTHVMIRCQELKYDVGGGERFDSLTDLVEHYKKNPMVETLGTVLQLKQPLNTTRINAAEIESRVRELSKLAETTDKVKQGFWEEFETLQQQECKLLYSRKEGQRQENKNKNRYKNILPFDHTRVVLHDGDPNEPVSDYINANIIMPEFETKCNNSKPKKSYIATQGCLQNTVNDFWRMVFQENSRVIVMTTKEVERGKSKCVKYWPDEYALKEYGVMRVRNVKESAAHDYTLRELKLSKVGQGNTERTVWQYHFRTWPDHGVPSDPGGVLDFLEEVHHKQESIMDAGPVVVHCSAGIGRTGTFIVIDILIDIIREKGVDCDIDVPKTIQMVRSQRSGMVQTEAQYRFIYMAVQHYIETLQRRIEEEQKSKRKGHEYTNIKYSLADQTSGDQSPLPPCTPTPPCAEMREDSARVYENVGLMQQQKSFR
Procedure: (§1) NCI‐H2122 cells were harvested and resuspended with pre‐cooled PBS containing 1% cocktail, which was then frozen in liquid nitrogen for 5 min and thawed in a water bath at 37 °C for 5 min for three repetitions. The supernatant was collected via centrifugation at 4 °C (15 000 × g, 20 min), divided into two equal portions; one was added with test drugs or various concentrations of embelin, and the other was added with DMSO as control and subsequently incubated at 25 °C for 30 min. All samples were heated at temperatures ranging from 52–70 °C for 3 min, and subsequently in an ice bath for 3 min and collected by centrifugation at 4 °C (15 000 × g, 20 min), and added with protein sampling buffer at 100 °C for 5 min, followed by analysis of protein stability using western blotting.

[1] = tested on: NCI-H2122, A549, and NCI-H1944 cells; assay: Cell senescence β-galactosidase staining; type: cell-based, human; details: NCI‐H2122 cells; candidate drugs 10 μM
Procedure: Cell senescence β-galactosidase staining
NCI-H2122, A549, and NCI-H1944 cells in the logarithmic growth phase were seeded into 48-well plates and cultured overnight. The supernatant was aspirated and fresh serum-free (0%), low-serum (3%), or regular serum (10%) medium with different drugs was added for 48 h. When the supernatant was discarded, β-galactosidase staining fixation fluid were added for 15 min and β-galactosidase staining solution were imported overnight at 37 ℃.
Finally, the staining results were recorded using an inverted microscope.

A549 and NCI‐H2122 cells = assay: Cell proliferation in monolayer culture (CCK-8); type: cell-based, human
Procedure: (§2) For the adherent cell viability assay, cells in the logarithmic growth phase were seeded in 96-well culture plates at a density of 5×103 well-1 and incubated overnight. Diluted compounds or DMSO were added, or specific treatments were incubated at 37 °C and 5% CO2 for 24 h or 48 h. Cell viability was determined using CCK-8 or CellLightTM Cell Viability Assay Kit, according to the manufacturer's protocol. The luminescence signals of the treated samples were normalized to those of the DMSO group. […]
Figure S7. Targeting SHP2 and XIAP produces a synthetic lethal effect. (A) Effects of NSC-87877 on cell viability of A549 and NCI-H2122 cells after 24 and 48 h were determined using the CCK-8. Bars, ± SEM. The curves were plotted using a variable slope (four-parameter) non-linear fit. (B, E, F, and I) Effects of Na3VO4 (B), birinapant (E), BV-6 (F), and LCL161 (I) on cell viability of human NCI-H2122 cells at 48 h were determined using the CCK-8. *p < 0.05, **p < 0.01 and ***p < 0.001 compared to control group (unpaired two-tailed Student’s t-test).(C, G) Effects of SHP099 (C) and GDC-0152 (G) on cell viability after 24 and 48 h were determined using the CCK-8. Bars, ± SEM. The curves were plotted using a variable slope (four-parameter) non-linear fit.(D, H) Effects of SHP099 (D) and GDC-0152 (H) on cell viability were determined after 48 h using intracellular ATP chemiluminescence. **p < 0.01 and ***p < 0.001 compared to control group (unpaired two-tailed Student’s t-test).(J) Effects of SHP099 and GDC-0152 separately and in combination, and the effect of embelin for 24 h on the cell viability were assessed using intracellular ATP […]
tailed Student’s t-test).(K) Effects of SHP099 and GDC-0152 separately and in combination with […] on the cell viability of human KRAS-WT and -mutant cells were assessed using a colony formation assay. (L, M) A549 and NCI-H2122 cells were instantaneously transfected with siPTPN11 and siXIAP separately and together for 24 h under

[2] = tested on: KRAS‐mutant NSCLC cells in 3D culture; assay: Cell proliferation in 3D cell culture (ATP chemiluminescence); type: cell-based
Procedure: (§3) supplies are listed in Supplementary Table S5. […]
For the adherent cell viability assay, cells in the logarithmic growth phase were seeded in 96-well culture plates at a density of 5×103 well-1 and incubated overnight. Diluted compounds or DMSO were added, or specific treatments were incubated at 37 °C and 5% CO2 for 24 h or 48 h. Cell viability was determined using CCK-8 or CellLightTM Cell Viability Assay Kit, according to the manufacturer's protocol. The luminescence signals of the treated samples were normalized to those of the DMSO group.
For spherical cell viability assays, cells in the logarithmic growth phase were inoculated ata density of 4×10^3 well-1 into 96-well spherical cell microplates and incubated at 37 °C, 5% CO2 for 24 h or 48 h. Cell viability was measured using the CellTiter-Glo® Luminescent Cell Viability 3D Cell Viability Assay Kit, according to the manufacturer’s protocol. The remaining steps were the same as those described above. […]
Figure S7. Targeting SHP2 and XIAP produces a synthetic lethal effect. (A) Effects of NSC-87877 on cell viability of A549 and NCI-H2122 cells after 24 and 48 h were determined using the CCK-8. Bars, ± SEM. […]
tailed Student’s t-test).(K) Effects of SHP099 and GDC-0152 separately and in combination with […] on the cell viability of human KRAS-WT and -mutant cells were assessed using a colony formation assay. […]

NCI‐H2122 tumor = assay: NCI-H2122 subcutaneous transplantation tumor model; type: in vivo, BALB/c‐nu mouse; details: i.p., q2d
Procedure: NCI‐H2122 cells in the logarithmic growth phase were collected by mixing serum‐free RMPI‐1640 medium and Matrigel matrix gel, and injected subcutaneously into the right axilla of thymus‐less male BALB/c‐nu nude mice. Tumor volume was calculated according to V = ab^2/2 (where a and b are the long and short diameters of the tumor, respectively), and body weight was recorded every 3 days. When the tumor volume reached 100 mm^3, the mice were randomly divided into six groups (ten mice in each group): Control group (i.p, q2d), SHP099 (20 mg kg^−1, i.p, q2d) group, GDC‐0152 (20 mg kg^−1, i.p, q2d) group, SHP099 (20 mg kg^−1, i.p, q2d) + GDC‐ 0152 (20 mg kg^−1, i.p, q2d) co‐administration group, embelin (20 mg kg^−1, i.p, q2d) medium‐dose group and embelin (30 mg kg^−1, i.p, q2d) high‐dose group. When the tumor volume reached 1000 mm^3, all experimental mice were sacrificed, and tumor tissues and major organs, such as the heart, liver, spleen, lungs, and kidneys, were collected for further study.

XIAP = molecular target: T2, XIAP (Homo sapiens, UniProt P98170); assay: Cellular thermal shift assay (CETSA); type: binding; details: 56 and 62 ℃
T2 construct: endogenous in cells; host or cells: NCI-H2122
Procedure: as §1

A549 cells = assay: Cell viability assay (CCK-8); type: cell-based; details: Homo sapiens; A549, KRAS G12S, 24 h; read-out: IC50 at 24 h
Procedure: as §3
(§4) KRAS-mutant and wild-type cells are listed in Supplementary Table S7.
as §2

NCI-H1975 cells = assay: Cell viability assay (CCK-8); type: cell-based; details: Homo sapiens, NCI-H1975, 24 h, NCI-H1975, RAS-wild type, EGFR L858R/T790M
Procedure: as §3, §4, §2

T2 sequence (P98170 whole entry): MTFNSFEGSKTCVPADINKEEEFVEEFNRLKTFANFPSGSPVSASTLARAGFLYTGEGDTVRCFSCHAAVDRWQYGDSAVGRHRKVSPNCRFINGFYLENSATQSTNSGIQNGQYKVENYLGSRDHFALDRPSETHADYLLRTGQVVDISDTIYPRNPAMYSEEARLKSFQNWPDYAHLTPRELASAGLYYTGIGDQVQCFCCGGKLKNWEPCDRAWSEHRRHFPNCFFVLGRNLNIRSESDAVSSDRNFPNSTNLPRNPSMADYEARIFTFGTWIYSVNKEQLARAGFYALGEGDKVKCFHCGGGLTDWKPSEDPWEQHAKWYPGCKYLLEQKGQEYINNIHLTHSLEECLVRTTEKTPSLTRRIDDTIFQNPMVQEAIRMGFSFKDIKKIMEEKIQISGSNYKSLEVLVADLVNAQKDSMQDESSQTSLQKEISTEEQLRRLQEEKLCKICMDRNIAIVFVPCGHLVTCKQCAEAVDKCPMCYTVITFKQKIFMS

CN[C@@H](C)C(=O)N[C@H](C(=O)N1CCC[C@H]1C(=O)Nc1snnc1-c1ccccc1)C1CCCCC1 [GDC‐0152]
effect on SHP2 protein stability (CETSA) (SHP2): did not affect SHP2 protein stability | induction of cell senescence [1]: induced cellular senescence | effect on cell proliferation in monolayer cell culture mode (A549 and NCI‐H2122 cells): almost no effect | effect on cell proliferation in 3D cell culture [2]: partially inhibited cell proliferation | effect on body weight of the mice (NCI‐H2122 tumor): little or no effect on the body weight | effect on weights of hearts, livers, lungs, and kidneys and structure of hearts and kidneys (NCI‐H2122 tumor): no significant effect

O=S(=O)(O)c1ccc2cc(N=Nc3cc(S(=O)(=O)O)c4cccnc4c3O)ccc2c1 [NSC‐87877]
effect on XIAP protein stability (CETSA) (XIAP): did not affect XIAP protein stability | effect on cell proliferation in monolayer cell culture mode (A549 and NCI‐H2122 cells): almost no effect

[Na+].[Na+].[Na+].[O]=[V]([O-])([O-])[O-] [Na3VO4]
effect on XIAP protein stability (CETSA) (XIAP): did not affect XIAP protein stability | effect on cell proliferation in monolayer cell culture mode (A549 and NCI‐H2122 cells): almost no effect

C#Cc1cccc(Nc2ncnc3cc(OCCOC)c(OCCOC)cc23)c1 [erlotinib]
IC50 (A549 cells): > 100 µM | IC50 (NCI-H1975 cells): > 100 µM

Source: paper PMC12005787, “Synthetic Lethality of SHP2 and XIAP Suppresses Proliferation and Metastasis in KRAS‐mutant Nonsmall Cell Lung Cancer” (Advanced Science, 2025)
